Data reported in paper PMC3546743 (2012).

What follows are compounds tested on modified aptamer M3.2 (DNA, aptamer) ACTCATCTGTGAAGAGAAGCAGCACAGAGGTCAGATGTCCGTCAGCCCCGATCGCCATCCAGGGACTCCCCCCTATGCCTATGCGTGCTACCGTGAA (assay: gold nanoparticle colorimetric assay, UV-Vis). Conditions: 250 mM NaCl; 1 µL of 50 mM compound in DMF added; room temperature; thiol oligos on gold nanoparticles.

SMILES	binding
CC(C)[C@H]1C(=O)N2CCC[C@H]2[C@]2(O)O[C@](NC(=O)[C@@H]3C=C4c5cccc6[nH]cc(c56)C[C@H]4N(C)C3)(C(C)C)C(=O)N12	no
CN(C)Cc1c[nH]c2ccccc12	no
CN1C[C@H](CN)C[C@@H]2c3cccc4c3c(cn4C)C[C@H]21	yes
CN1C[C@H](CNC(=O)OCc2ccccc2)C[C@@H]2c3cccc4c3c(cn4C)C[C@H]21	yes
NCCc1c[nH]c2ccccc12	no
N[C@@H](Cc1c[nH]c2ccccc12)C(=O)O	no
O=C(N[C@H](CO)[C@H](O)c1ccc([N+](=O)[O-])cc1)C(Cl)Cl	no
